# Key:
# [1] = system: Rats; assay: Cholesterol / epicholesterol enriched diets in rats: plasma and liver total cholesterol (enzymatic colorimetric method); type: in vivo, Male Sprague Dawley rats; settings: 4 days
# Experimental: (§1) Male Sprague Dawley rats weighing 250 g and male CD mice weighing 22-25 g (Charles River) were housed in rooms maintained at 21±1°C with relative humidity 50-60% and a 12 hours light-dark cycle. After a week of housing, the animals were allocated to the different experimental groups and received one of the following diets: • a) rat or mouse chow diet, containing 0.5% sodium cholate; • b) cholesterol enriched diet, containing 0.5% sodium cholate and 1.5% cholesterol; • c) epicholesterol enriched diet, containing 0.5% sodium cholate and 1.5% epicholesterol; • d) epicholesterol and cholesterol enriched diet containing 0.5% sodium cholate and 1.5% of both sterols. Weight of the animals and food consumption were recorded daily. After overnight fasting, the animals were anesthetized with sodium pentobarbital (50 mg/kg body weight) and exsanguinated from the abdominal aorta. Plasma was obtained by low speed (3000 g for 10 min) centrifugation of whole blood containing Na₂EDTA as anticoagulant. Plasma lipid extracts were prepared according to Bligh E.G., Dyer W.J., Can. J. Bioch. Physiol, 31, 911, 1959. Liver specimens (500 mg) were excised from the lateral liver lobe, washed in ice-cold saline, and immediately placed on dry-ice and stored at -80°C. They were extracted according to the method of Folch J. et al., J. Biol. Chem. , 226, 497, 1957, as modified by Carlson L.A., J. Atheroscler. Res., 3, 334, 1963. Plasma and liver total cholesterol content (i.e. unesterified and esterified cholesterol fractions) were determined by the enzymatic colorimetric method of Allain et al., Clin. Chem., 20, 470, 1974. In this assay epicholesterol is not read.
# [2] = system: Mice; assay: Cholesterol / epicholesterol enriched diets in mice: plasma and liver total cholesterol (enzymatic colorimetric method); type: in vivo, male CD mice; settings: 4 days
# Experimental: as §1
# [3] = Micellar cholesterol solubilization in vitro; type: physicochemical; settings: for Micellar Cholesterol Content: cholesterol 1 mM
# Experimental: The micellar solubility of cholesterol in vitro was measured by the method of Ikeda I., Tanabe Y. and Sugano M. , J. Nutr. Sci. Vitaminol. 35, 361, 1989. In detail, cholesterol (1 mM) or mixture of cholesterol (1 mM) and epicholesterol (0.5-8 mM) were sonicated for 2 minutes at 37°C in 15 mM NaPO₄ buffer, pH 7.4, containing 0.6 mM egg yolk lecithin, 1 mM oleic acid, 0.5 mM monolein, 6.6 mM Na taurocholate, and 132 mM NaCl. After incubation at 37°C overnight, the solutions were subjected to ultracentrifugation (100,000 g for 60 min at 37°C). Samples of the supernatant were assayed for the cholesterol content.
# [4] = Gas liquid chromatography of unesterified sterols in plasma and liver of mice fed enriched diets; type: in vivo; settings: for Percent Distribution Epicholesterol (unesterified sterol content): 1.5% sterol enriched diet, Mean ± SD, n=3, nd: not detectable
# Experimental: Male Sprague Dawley rats weighing 250 g and male CD mice weighing 22-25 g (Charles River) were housed in rooms maintained at 21±1°C with relative humidity 50-60% and a 12 hours light-dark cycle. After a week of housing, the animals were allocated to the different experimental groups and received one of the following diets: • a) rat or mouse chow diet, containing 0.5% sodium cholate; • b) cholesterol enriched diet, containing 0.5% sodium cholate and 1.5% cholesterol; • c) epicholesterol enriched diet, containing 0.5% sodium cholate and 1.5% epicholesterol; • d) epicholesterol and cholesterol enriched diet containing 0.5% sodium cholate and 1.5% of both sterols. Weight of the animals and food consumption were recorded daily.
# After overnight fasting, the animals were anesthetized with sodium pentobarbital (50 mg/kg body weight) and exsanguinated from the abdominal aorta. Plasma was obtained by low speed (3000 g for 10 min) centrifugation of whole blood containing Na₂EDTA as anticoagulant.
# Plasma lipid extracts were prepared according to Bligh E.G., Dyer W.J., Can. J. Bioch. Physiol, 31, 911, 1959.
# Liver specimens (500 mg) were excised from the lateral liver lobe, washed in ice-cold saline, and immediately placed on dry-ice and stored at -80°C. They were extracted according to the method of Folch J. et al., J. Biol. Chem. , 226, 497, 1957, as modified by Carlson L.A., J. Atheroscler. Res., 3, 334, 1963.
# Lipids extract from plasma and liver were separated by TLC on Silica Gel plates from Merck using petroleum ether 40-70°/diethyl ether/acetic acid (80:20:1) as developing system. Cholesterol, epicholesterol, dihydrocholesterol, and 7-keto-cholesterol as representative of the oxysterol class of sterols migrated with very similar Rf and could be recovered as a single area from the TLC plate. These sterols were eluted from the silica using chloroform and were dried by evaporation under N₂. The samples were redissolved in pyridine and derivatizated adding an equal volume of MBSTFA [N-methyl-N(tert-butyldimethylsilyl)Trifluoroacetamide].
# After 20 minutes at room temperature the samples were analyzed by GLC according to Smith N.B., Lipids, 17, 464, 1982, on a Carlo Erba Mega 3000 gaschromatographer equipped with a flame ionization detector and a 25 m OV1 column (0.2 mm id., film thickness 0.2-0.25). He was used as carrier at 100 Kps. The splitless injection technique was used and 1-2 µl sample were injected. […] The injection and the detector temperatures were respectively 340°C and 350°C. Retention time of cholesterol, epicholesterol, dihydrocholesterol and 7keto-cholesterol were determined by injecting pure sterols.
# [5] = diet with 0.5% sodium cholate and 1.5% of the single sterol
# [6] = diet with 0.5% sodium cholate and 1.5% of the single sterol, listed as cholesterol
# [7] = diet with 0.5% sodium cholate and 1.5% of the single sterol, mean±spread
# [8] = diet with 0.5% sodium cholate and 1.5% of the single sterol, listed as epicholesterol
# [9] = diet with 1.5% Cholesterol and 1.5% Epicholesterol together, 0.5% sodium cholate
# [10] = diet with 1.5% Cholesterol and 1.5% Epicholesterol together, 0.5% sodium cholate, listed as epicholesterol
smiles,measurement,setting,value
CC(C)CCC[C@@H](C)[C@H]1CC[C@H]2[C@@H]3CC=C4C[C@@H](O)CC[C@]4(C)[C@H]3CC[C@]12C [Cholesterol],CHOLESTEROL CONCENTRATION IN LIVER,[1]; [5],**11.28±1.48 (n=7) mg/g fresh tissue
same,CHOLESTEROL CONCENTRATION IN LIVER,[1]; [6],at least a fourfold increase
same,CHOLESTEROL CONCENTRATION IN PLASMA,[1]; [7],**178±45 (n=7) mg/dl
same,CHOLESTEROL CONCENTRATION IN PLASMA,"[1]; diet with 0.5% sodium cholate and 1.5% of the single sterol, mean±spread, listed as cholesterol",rose significantly
same,CHOLESTEROL CONCENTRATION IN LIVER,[2]; [5],**18.70±2.60 (n=10) mg/g fresh tissue
same,CHOLESTEROL CONCENTRATION IN PLASMA,[2]; [5],**152±19 (n=10) mg/dl
same,CHOLESTEROL CONCENTRATION IN LIVER,[2]; [6],at least a fourfold increase
same,CHOLESTEROL CONCENTRATION IN PLASMA,[2]; [6],rose significantly
"CC(C)CCC[C@@H](C)[C@H]1CC[C@H]2[C@@H]3CC=C4C[C@H](O)CC[C@]4(C)[C@H]3CC[C@]12C [Epicholesterol, cholest-5-en-3α-ol]",CHOLESTEROL CONCENTRATION IN LIVER,[1]; [5],°° 2.59±0.38 (n=3) mg/g fresh tissue
same,CHOLESTEROL CONCENTRATION IN LIVER,[1]; [8],did not brought about any significant change
same,CHOLESTEROL CONCENTRATION IN PLASMA,[1]; [7],°° 64±18 (n=3) mg/dl
same,CHOLESTEROL CONCENTRATION IN PLASMA,"[1]; diet with 0.5% sodium cholate and 1.5% of the single sterol, mean±spread, listed as epicholesterol",did not brought about any significant change
same,CHOLESTEROL CONCENTRATION IN LIVER,[1]; [9],** 5.71±0.95 °° (n=3) □ mg/g fresh tissue
same,CHOLESTEROL CONCENTRATION IN PLASMA,[1]; [9],**103±9 ° (n=3) □ mg/dl
same,CHOLESTEROL CONCENTRATION IN LIVER,[1]; [10],significant decrease
same,CHOLESTEROL CONCENTRATION IN PLASMA,[1]; [10],significant decrease
same,Micellar Cholesterol Content,[3]; Cholesterol-to-Epicholesterol Ratio 0.125,0.18 ± 0.02 mM
same,Micellar Cholesterol Content,[3]; Cholesterol-to-Epicholesterol Ratio 0.25,0.22 ± 0.03 mM
same,Micellar Cholesterol Content,[3]; Cholesterol-to-Epicholesterol Ratio 0.5,0.23 ± 0.06 mM
same,Micellar Cholesterol Content,[3]; Cholesterol-to-Epicholesterol Ratio 1,0.42 ± 0.03 mM
same,Micellar Cholesterol Content,"[3]; Cholesterol-to-Epicholesterol Ratio 2, control (cholesterol only) 1.00 ± 0.05",0.71 ± 0.05 mM
same,decrease of cholesterol micellar solubility,[3]; cholesterol and epicholesterol in a 1 to 0.5 molar ratio,more than 30%
same,cholesterol micellar solubility,"[3]; epicholesterol and cholesterol mixed together, all the concentrations tested of epicholesterol (0.5-8 mM)",significantly decreased
same,absorption by the intestine,[4]; conclusion from plasma and liver sterol content of mice fed 1.5% epicholesterol diet,only minimally absorbed
same,Percent Distribution Epicholesterol (unesterified sterol content),[4]; mice liver,1.0±0.4%
same,Percent Distribution Epicholesterol (unesterified sterol content),"[4]; mice liver, listed as epicholesterol",only trace amount
same,Percent Distribution Epicholesterol (unesterified sterol content),[4]; mice plasma,2.6±1.5%
same,Percent Distribution Epicholesterol (unesterified sterol content),"[4]; mice plasma, listed as epicholesterol",only trace amount
same,CHOLESTEROL CONCENTRATION IN LIVER,[2]; [5],°° 2.58±0.16 (n=10) mg/g fresh tissue
same,CHOLESTEROL CONCENTRATION IN PLASMA,[2]; [5],* 93±15 °°(n=10) mg/dl
same,CHOLESTEROL CONCENTRATION IN LIVER,[2]; [8],did not brought about any significant change
same,CHOLESTEROL CONCENTRATION IN PLASMA,[2]; [8],did not brought about any significant change
same,CHOLESTEROL CONCENTRATION IN LIVER,[2]; [9],** 9.54±1.49 °° (n=10) □□ mg/g fresh tissue
same,CHOLESTEROL CONCENTRATION IN PLASMA,[2]; [9],**115±26 □(n=10) mg/dl
same,CHOLESTEROL CONCENTRATION IN LIVER,[2]; [10],significant decrease
same,CHOLESTEROL CONCENTRATION IN PLASMA,[2]; [10],significant decrease

# Source: EP0664129A2, “Epicholesterol for treating dyslipidemia” (PHARMACIA S.p.A., priority 1994, dated 1995)
